Data as given in ChEMBL document CHEMBL1123416, “Imidazo[2,1-b]benzothiazoles. 2. New immunosuppressive agents” (1986).
Values joined by “and” are separate entries in the source; they are usually repeats but may differ in a detail not shown here. Equal values may be shown once.

Assays:
Format in all cases: functional
Mus musculus [1] = assay: Effect on the plaque forming cell formation in BDF1 mice after peroral administration at dose of 300 mg/kg; conditions: route oral
Mus musculus [2] = assay: Compound was tested for its significant suppressive activity of delayed type hypersensitivity (DTH) with out inhibition of humoral immunity in mice by oral administration at dose of 100 mg/kg
Mus musculus [3] = assay: Compound was tested for its significant suppressive activity of delayed type hypersensitivity (DTH) with out inhibition of humoral immunity in mice by oral administration at dose of 200 mg/kg
Mus musculus [4] = assay: Compound was tested for its significant suppressive activity of delayed type hypersensitivity (DTH) with out inhibition of humoral immunity in mice by oral administration at dose of 25 mg/kg
Mus musculus [5] = assay: Effect on the plaque forming cell formation in BDF1 mice after peroral administration at dose of 100 mg/kg; conditions: route oral
Mus musculus [6] = assay: Effect on the plaque forming cell formation in BDF1 mice after peroral administration at dose of 30 mg/kg; conditions: route oral
Mus musculus [7] = assay: Effect on the plaque forming cell formation in BDF1 mice after peroral administration at dose of 10 mg/kg; conditions: route oral
Mus musculus [8] = assay: Significant suppressive activity of delayed type hypersensitivity (DTH) with out inhibition of humoral immunity in mice by oral administration at dose of 400 mg/kg
Mus musculus [9] = assay: Significant suppressive activity of delayed type hypersensitivity (DTH) with out inhibition of humoral immunity in mice by oral administration at dose of 50 mg/kg

SMILES: Oc1cccc(-c2cn3c(n2)sc2ccccc23)c1
- PFC/splleen (Mus musculus [1]): 0.182
- Increase in ear thickness (Mus musculus [2]): 2.4 1/100mm
- inhibition in vivo at 100 mg/kg (Mus musculus [2]): 61.3%
- Increase in ear thickness (Mus musculus [3]): 2.8 1/100mm
- inhibition in vivo at 200 mg/kg (Mus musculus [3]): 54.8%
- Increase in ear thickness (Mus musculus [4]): 5.3 1/100mm
- PFC/splleen (Mus musculus [5]): 0.198
- PFC/splleen (Mus musculus [6]): 0.138
- PFC/splleen (Mus musculus [7]): 0.177
- inhibition in vivo at 400 mg/kg (Mus musculus [8]): 79%
- Increase in ear thickness (Mus musculus [8]; 400 mg/kg): 0.9 1/100mm and 1.3 1/100mm
- inhibition in vivo at 50 mg/kg (Mus musculus [9]): 37.1%
- Increase in ear thickness (Mus musculus [9]; 50 mg/kg): 3.4 1/100mm and 3.9 1/100mm
